{"source": "patent US5385888A", "about": "“Class I MHC modulation or surface receptor activity” (The Regents of the University of California, priority 1993, dated 1995)", "key": {"rat adipocytes": {"tested_on": "rat adipocytes", "format": "cell-based", "procedure": "(§1) Preparation of Adipocytes--The procedure has been described in detail previously. Briefly, male Wistar rats (100-150 g) were decapitated, and the epididymal fat pads removed and minced with scissors into KRHB (Krebs-Ringer/HEPES/Bovine serum albumin (BSA) buffer: 80 mM NaCl, 4.7 mM KCl, 2.5 mM CaCl2, 1.2 mM MgSO4, 50 mM HEPES, 5% BSA (Sigma, radioimmunoassay grade), pH 7.2) containing 5 mM D-glucose and 1 mg/ml collagenase (type I, Worthington) and digested (1 hr, 37° C.) with gentle shaking (250 cycles per minute). The adipocytes were washed five times in KRHB (each wash in a volume ten times the cell volume). The adipocyte layer was finally diluted with KRHB to a 10% (v/v) suspension as estimated by the volume of packed cells (lipocrit).\nGlucose uptake in vitro--The uptake of [^14 C]glucose (D-[U-^14 C]glucose, Amersham, (300 Ci/mol)) by isolated rat adipocytes was measured as follows unless otherwise stated: 50 μl adipocyte cell suspension was pipetted into \"Nunc-Immuno tube minisorp\" (Nunc, Denmark) and preincubated at 37° C. with gentle shaking (225 cycles per minute) for 30 min. Hormones and peptides were added in 50 μl KRHB and incubated for 30 min at 37° C. Before addition to cells, all solutions were neutralized to pH 7.2. [^14 C]glucose tracer (~100,000 dpm) was added and the incubation continued for another 20 minutes at 37° C. The assay was terminated by centrifugation of 100 μl sample on top of 250 μl silicone oil (Thomas Scientific) in 500 μl tubes in a microfuge (10,000×g) for 1 min. The tube was cut just below the adipocyte layer and the amount of radioactivity in the adipocytes determined by scintillation counting. The precise concentration of [^14 C]glucose was calculated from total counts added."}, "purified human IR": {"biological_target": "T1, purified human IR (Homo sapiens, UniProt P06213)", "T1 construct": "The product was a tetramer with two heavy chains, each ~130 kDa, and two light chains, each ~90 kDa; from tissue; host or cells: human placenta", "assay": "Tyrosine kinase activity of purified IR (autophosphorylation)", "format": "biochemical", "procedure": "The purified human IR and the cloned cytoplasmic kinase domain (IRKD) have been described (Ellis et al., (1988) Virology 62:1634-39; Roth et al., (1986) J. Biol. Chem. 261:3753-57). Briefly, the human IR was purified from placenta by immunoaffinity columns, using monoclonal antibodies and binding of IR to wheat germ agglutinin. The product was a tetramer with two heavy chains, each ~130 kDa, and two light chains, each ~90 kDa. […] When peptide was used, it was added in 5.0 μl, the volume adjusted to 20 μl by adding buffer, and the mixture incubated (1 hr, 4° C.). After incubation, 10 μl of a solution containing 2.5 μCi ^32 P-labeled ATP (3,000 Ci/mmol; γ-labeled; Amersham) 50 mM HEPES, pH 7.6, 150 mM NaCl, 0.1% Triton X-100, 37.5 μM unlabeled ATP, 15 mM MgCl2, and 6 mm MnCl2 was added to a final volume of 30 μ l. The mixture was then incubated for 30 min. at 24° C. After incubation, 15 μl sample buffer was added, and the sample was boiled for 5 min., and run on 10% SDS-PAGE overnight. The gel was dried, and autoradiograms processed with an exposure time of 5-10 hr. For quantitative estimates the β-subunit band of IR and the IRKD bands were cut out and counted dry (Cerenkov) in a scintillation counter."}, "EGFR": {"biological_target": "T2, EGFR (Rattus norvegicus, UniProt G3V6K6)", "T2 construct": "male Wistar rats (100-150 g) were decapitated, and the epididymal fat pads removed; endogenous in cells; host or cells: freshly isolated epididymal adipocytes of male Wistar rats", "assay": "Cell-associated 125I-labeled EGF on rat adipocytes", "format": "binding", "procedure": "as §1\nCell-associated ^125 I-labeled EGF--50 μl adipocyte cell suspension was pipetted into \"Nunc-Immuno tube minisorp\" (Nunc, Denmark) and preincubated at 37° C. with gentle shaking (225 cycles per minute) for 30 min. […] The assay was terminated by centrifugation of 75 μl sample as described above for glucose uptake, and the cell-associated as well as the free ^125 I-labeled EGF was determined by γ-counting. […] The data were calculated as specific cell-associated ^125 I-labeled EGF and the maximal value was in each experiment set to 100%."}, "rats": {"tested_on": "rats", "assay": "Blood glucose levels in whole rats after i.v. injection", "format": "in vivo, rat", "conditions": "insulin alone 10 μg/kg i.v.", "procedure": "The effect of D^k -(61-85) in whole rats was determined. […] All animals were starved 16-20 hrs. prior to experimentation. Each determination was based on results as obtained from 42 rats, where the same rats were used in the four treatment schedules. The schedules were a control, a peptide by itself, insulin by itself, and insulin plus peptide. […] The peptide, at about 20 min., the blood glucose had dropped to about 65% of its original value and then slowly rose back to about the original value at about 90 min. and was maintained about the same level."}}, "note": "Where a SMILES comes first, the peptide text is derived from it.", "data": [{"compound": "CC[C@H](C)[C@H](NC(=O)[C@H](CCC(N)=O)NC(=O)[C@@H](NC(=O)[C@H](CCC(=O)O)NC(=O)[C@H](CCCNC(=N)N)NC(=O)[C@@H](N)CCC(=O)O)[C@@H](C)O)C(=O)N[C@@H](C)C(=O)N[C@@H](CCCCN)C(=O)NCC(=O)N[C@@H](CC(N)=O)C(=O)N[C@@H](CCC(=O)O)C(=O)N[C@@H](CCC(N)=O)C(=O)N[C@@H](CO)C(=O)N[C@@H](Cc1ccccc1)C(=O)N[C@@H](CCCNC(=N)N)C(=O)N[C@H](C(=O)N[C@@H](CC(=O)O)C(=O)N[C@@H](CC(C)C)C(=O)N[C@@H](CCCNC(=N)N)C(=O)N[C@H](C(=O)N[C@@H](CC(C)C)C(=O)N[C@@H](CC(C)C)C(=O)N[C@@H](CCCNC(=N)N)C(=O)N[C@@H](Cc1ccc(O)cc1)C(=O)N[C@@H](Cc1ccc(O)cc1)C(=O)O)[C@@H](C)O)C(C)C", "note": "[D^k-(61-85)] (H-ERETQIAKGNEQSFRVDLRTLLRYY-OH)", "values": [{"measurement": "EC50", "setting": "rat adipocytes", "result": "10 to 15", "unit": "µM"}]}, {"compound": "ACTH-(1-24): human ACTH-(1-24), routine control peptide, Peninsula Laboratories", "values": [{"measurement": "Substrate for IR tyrosine Kinase", "setting": "purified human IR", "result": "None of the control peptides (e.g. ACTH-(1-24) are substrates"}]}, {"compound": "EGF: epidermal growth factor (mouse), Collaborative Research", "values": [{"measurement": "Glucose uptake above basal", "setting": "rat adipocytes; EGF alone", "result": "~ 50%"}, {"measurement": "Apparent affinity of specific cell-associated EGF", "setting": "EGFR", "result": "low nanomolar range"}]}, {"compound": "PDGF", "values": [{"measurement": "Effect on glucose uptake in adipocytes", "setting": "rat adipocytes; PDGF alone", "result": "no effect"}]}, {"compound": "TGFα: TGFα (rat), Peninsula Laboratories", "values": [{"measurement": "[14C]glucose uptake above basal", "setting": "rat adipocytes; 50 nM TGFα alone", "result": "~ 50%"}]}, {"compound": "insulin: unlabeled porcine insulin (NOVO)", "values": [{"measurement": "EC50", "setting": "purified human IR; insulin as stimulus", "result": "~0.003", "unit": "µM"}, {"measurement": "Blood glucose course compared with peptide alone", "setting": "rats", "result": "A similar result"}]}]}
